Counter-ions that a name gives are not always drawn.

The values that follow come from US6894059B1, “Compounds and methods for treatment of asthma, allergy and inflammatory disorders” (UCB S.A., priority 1999, dated 2005).

Take `NC(=O)N(O)CCCCc1ccc(OCCCN2CCN([C@H](c3ccccc3)c3ccc(Cl)cc3)CC2)cc1` [Compound 79, N-{4-[4-(3-{4-[(1R)(4-chlorophenyl)phenylmethyl]piperazinyl}propoxy)phenyl]butyl}amino-N-hydroxyamide]: the melting point (in general, the temperature of the solid-liquid transition) lay within 60 to 65 °C. The compound `NC(=O)N(O)CCCOc1ccc(CCCN2CCN([C@H](c3ccccc3)c3ccc(Cl)cc3)CC2)cc1` [Compound 94, N-{3-[4-[3-{4-[(R)-(4-chlorophenyl)(phenyl)methyl]-1-piperazinyl}propyl]phenoxy]propyl}-N-hydroxyurea] had a melting point of 64 to 66 °C. With `NC(=O)N(O)CCC#Cc1ccc(OCCN2CCN(C(c3ccc(F)cc3)c3ccc(F)cc3)CC2)cc1[N+](=O)[O-]` [Compound 87, N-{4-[4-(2-{4-[bis(4-fluorophenyl)methyl]-1-piperazinyl}ethoxy)-2-nitrophenyl]-3-butynyl}-N-hydroxyurea], the melting point fell in the range of 65 to 70 °C. On to `NC(=O)N(O)CCCc1ccc(OCCCN2CCN(C(c3ccc(F)cc3)c3ccc(F)cc3)CC2)cc1` [Compound 86, N-{3-[4-(3-{4-[bis(4-fluorophenyl)methyl]-1-piperazinyl}propoxy)phenyl]propyl}-N-hydroxyurea], for which the melting point was 30 to 80 °C. `NC(=O)N(O)CCC#Cc1ccc(OCCCCN2CCN(C(c3ccc(F)cc3)c3ccc(F)cc3)CC2)cc1` [Compound 80, amino-N-{4-[4-(4-{4-[bis(4-fluorophenyl)methyl]piperazinyl}butoxy)phenyl]but-3-ynyl}-N-hydroxyamide]: the melting point lay within 64 to 68 °C.

Compound `NC(=O)N(O)CCCCc1ccc(OCCN2CCN([C@H](c3ccccc3)c3ccc(Cl)cc3)CC2)cc1` [Compound 17, N-{4-[4-(2-{4-[(1R)(4-chlorophenyl)phenylmethyl]piperazinyl}ethoxy)phenyl]butyl}amino-N-hydroxyamide] gave a melting point of 148 to 150 °C. Compound `NC(=O)N(O)CCC#Cc1ccc(OCCN2CCN([C@H](c3ccccc3)c3ccc(Cl)cc3)CC2)cc1[N+](=O)[O-]` [Compound 90, N-{4-[4-(2-{4-[(R)-(4-chlorophenyl)(phenyl)methyl]-1-piperazinyl}ethoxy)-2-nitrophenyl]-3-butynyl}-N-hydroxyurea] showed a melting point of 70 to 75 °C. Compound `NC(=O)c1cc(CCCCN(O)C(N)=O)ccc1OCCCN1CCN([C@H](c2ccccc2)c2ccc(Cl)cc2)CC1` [Compound 84, 2-(3-{4-[(1R)(4-chlorophenyl)phenylmethyl]piperazinyl}propoxy)-5-[4-(aminohydroxycarbonyl-amino)butyl]benzamide] yielded a melting point of 123 to 125 °C. Regarding `NC(=O)N(O)CCCCc1ccc(OCCN2CCN(C(c3ccc(F)cc3)c3ccc(F)cc3)CC2)cc1` [Compound 88, N-{4-[4-(2-{4-[bis(4-fluorophenyl)methyl]-1-piperazinyl}ethoxy)phenyl]butyl}-N-hydroxyurea], the melting point lay in the range of 140 to 145 °C. For `NC(=O)c1cc(CCCCN(O)C(N)=O)ccc1OCCN1CCN(C(c2ccc(F)cc2)c2ccc(F)cc2)CC1` [Compound 85, 5-{4-[(aminocarbonyl) (hydroxy)amino]butyl}-2-(2-{4-[bis(4-fluorophenyl)methyl]-1-piperazinyl}ethoxy)benzamide], the melting point was 138 to 140 °C. In the case of `NC(=O)c1cc(C#CCCN(O)C(N)=O)ccc1OCCN1CCN([C@H](c2ccccc2)c2ccc(Cl)cc2)CC1` (as salt: fumarate) [Compound 89, 5-{4-[(aminocarbonyl) (hydroxy)amino]-1-butynyl}-2-(2-{4-[(R)-(4-chlorophenyl)(phenyl)methyl]-1-piperazinyl}ethoxy)benzamide], the melting point was in the range of 162 to 165 °C. Under `NC(=O)c1cc(C#CCCN(O)C(N)=O)ccc1OCCN1CCN([C@H](c2ccccc2)c2ccc(Cl)cc2)CC1` (as salt: citrate) [Compound 93, 5-{4-[(aminocarbonyl) (hydroxy)amino]-1-butynyl}-2-(2-{4-[(R)-(4-chlorophenyl)(phenyl)methyl]-1-piperazinyl}ethoxy)benzamide] stands 153 to 156 °C; under `NC(=O)N(O)CCCCc1ccc(OCCCCN2CCN([C@H](c3ccccc3)c3ccc(Cl)cc3)CC2)cc1` (as salt: HCl) [Compound 76, N-{4-[4-(4-{4-[(1R)(4-chlorophenyl)phenylmethyl]piperazinyl}butoxy)phenyl]butyl}amino-N-hydroxyamide], 121 to 123 °C. On to `CC(=O)Nc1cc(C#CCCN(O)C(N)=O)ccc1OCCN1CCN([C@H](c2ccccc2)c2ccc(Cl)cc2)CC1` [Compound 77, N-[2-(2-{4-[(1R)(4-chlorophenyl)phenylmethyl]piperazinyl}ethoxy)-5-[4-(aminohydroxycarbonyl-amino)but-1-ynyl]phenyl] acetamide], for which the melting point was 90 to 95 °C. For the compound `NC(=O)N(O)CCC#Cc1ccc(OCC#CCN2CCN([C@H](c3ccccc3)c3ccc(Cl)cc3)CC2)cc1` [Compound 95, N-(4-{4-[(4-{4-[(R)(4-chlorophenyl)(phenyl)methyl]-1-piperazinyl}-2-butynyl)oxy]phenyl}-3-butynyl)-N-hydroxyurea], the melting point is 127 to 130 °C. As for `NC(=O)c1cc(C#CCCN(O)C(N)=O)ccc1OCCN1CCN([C@H](c2ccccc2)c2ccc(Cl)cc2)CC1` [Compound 35, 2-(2-{4-[(1R)(4-chlorophenyl)phenylmethyl]piperazinyl}ethoxy)-5-[4-(aminohydroxycarbonyl-amino)but-1-ynyl]benzamide], the melting point lay in the range of 156 to 158 °C. The value for `NC(=O)c1cc(C#CCCN(O)C(N)=O)ccc1OCCN1CCN([C@H](c2ccccc2)c2ccc(Cl)cc2)CC1` (as salt: HCl) [Compound 64, 2-(2-{4-[(1R)(4-chlorophenyl)phenylmethyl]piperazinyl}ethoxy)-5-[4-(aminohydroxycarbonyl-amino)but-1-ynyl]benzamide] was 208 °C. Compound `NC(=O)N(O)CCCc1ccc(OCCCN2CCN([C@H](c3ccccc3)c3ccc(Cl)cc3)CC2)cc1` [Compound 82, N-{3-[4-(3-{4-[(1R)(4-chlorophenyl)phenylmethyl]piperazinyl}propoxy)phenyl]propyl}amino-N-hydroxyamide] displayed a melting point of 52 to 90 °C. For `NC(=O)c1cc(C#CCCN(O)C(N)=O)ccc1OCCN1CCN([C@H](c2ccccc2)c2ccc(Cl)cc2)CC1` (as salt: maleate) [Compound 91, 5-{4-[(aminocarbonyl) (hydroxy)amino]-1-butynyl}-2-(2-{4-[(R)-(4-chlorophenyl)(phenyl)methyl]-1-piperazinyl}ethoxy)benzamide], the melting point lay in the range of 169 to 172 °C. For `NC(=O)c1cc(C#CCCN(O)C(N)=O)ccc1OCCCN1CCN([C@H](c2ccccc2)c2ccc(Cl)cc2)CC1` [Compound 62, 2-[3-{4-[(1R)(4-chlorophenyl)phenylmethyl]piperazinyl}propoxy)-5-[4-(aminohydroxycarbonyl-amino)but-1-ynyl]benzamide], the melting point was 153 to 155 °C.

In the case of `NC(=O)N(O)CCC#Cc1ccc(OCCCN2CCN(C(c3ccc(F)cc3)c3ccc(F)cc3)CC2)cc1` [Compound 83, amino-N-{4-[4-(3-{4-[bis(4-fluorophenyl)methyl]piperazinyl}propoxy)phenyl]but-3-ynyl}-N-hydroxyamide], the melting point was 78 °C.

On to `NC(=O)c1cc(C#CCCN(O)C(N)=O)ccc1OCCN1CCN([C@H](c2ccccc2)c2ccc(Cl)cc2)CC1` (as salt: tartrate) [Compound 92, 5-{4-[(aminocarbonyl) (hydroxy)amino]-1-butynyl}-2-(2-{4-[(R)-(4-chlorophenyl)(phenyl)methyl]-1-piperazinyl}ethoxy)benzamide], for which the melting point fell in the range of 155 to 158 °C.
